What was measured:
BACE1 [1] = molecular target: T1, BACE1 (Homo sapiens, UniProt P56817); assay: BACE1 biochemical FRET based assay (Test Example 2-1); settings: for selectivity: BACE2 IC50 over BACE1 IC50 (FRET); for IC50: FRET, 0.04 μg/mL BACE1, 450 minutes, Citrate buffer pH 5.0
Procedure, shortened: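 FRET cleavage of 13-mer APP Swedish-mutant peptide (Mca donor/Dnp quencher, […]) by recombinant BACE1 (0.04 μg/mL final), 450 min at room temperature in 33.3 mM citrate pH 5.0, 0.033% PEG, 3% DMSO. Fluorescence (ex 320/em 405 nm) read as T450 minus Tx (0–120 min); IC50 from curve fit of % control.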

BACE2 [2] = molecular target: T2, BACE2 (Homo sapiens, UniProt Q9Y5Z0); assay: BACE2 biochemical FRET based assay (Test Example 2-1 (2)); settings: 0.4 μg/mL BACE2, 450 minutes, Citrate buffer pH 5.0
T2 sequence (Q9Y5Z0 63-518): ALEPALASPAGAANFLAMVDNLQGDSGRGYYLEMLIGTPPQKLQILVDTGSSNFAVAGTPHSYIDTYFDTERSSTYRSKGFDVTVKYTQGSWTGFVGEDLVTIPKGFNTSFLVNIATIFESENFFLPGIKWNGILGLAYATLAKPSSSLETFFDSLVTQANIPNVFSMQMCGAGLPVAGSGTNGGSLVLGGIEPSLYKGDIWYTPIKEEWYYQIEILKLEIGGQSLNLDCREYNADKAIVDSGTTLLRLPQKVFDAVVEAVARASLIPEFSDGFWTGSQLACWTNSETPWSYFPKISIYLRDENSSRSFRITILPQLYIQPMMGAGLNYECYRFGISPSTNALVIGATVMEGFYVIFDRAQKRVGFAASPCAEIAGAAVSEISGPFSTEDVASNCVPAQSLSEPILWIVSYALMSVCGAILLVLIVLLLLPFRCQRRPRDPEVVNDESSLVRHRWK
Procedure, shortened: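 Recombinant human BACE2 (0.4 μg/mL final) was incubated 450 min at room temperature with 10 μM Mca/Dnp-quenched Swedish-APP FRET substrate in 33.3 mM citrate pH 5.0, 0.033% PEG, 2% DMSO. Fluorescence (ex 320/em 405 nm) was taken as the T450 minus T0 difference. IC50 came from least-squares fit of % control.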

CYP3A4 = molecular target: T3, CYP3A4 (Homo sapiens, UniProt P08684); assay: CYP3A4(MDZ) MBI test (Test Example 4-2); assay type: in vitro ADME; settings: pooled human liver microsomes, 10 μmol/L MDZ, pre-reaction 0 or 30 minutes; shifted IC value
T3 construct: from tissue; host or cells: pooled human liver microsomes
T3 sequence (P08684 whole entry): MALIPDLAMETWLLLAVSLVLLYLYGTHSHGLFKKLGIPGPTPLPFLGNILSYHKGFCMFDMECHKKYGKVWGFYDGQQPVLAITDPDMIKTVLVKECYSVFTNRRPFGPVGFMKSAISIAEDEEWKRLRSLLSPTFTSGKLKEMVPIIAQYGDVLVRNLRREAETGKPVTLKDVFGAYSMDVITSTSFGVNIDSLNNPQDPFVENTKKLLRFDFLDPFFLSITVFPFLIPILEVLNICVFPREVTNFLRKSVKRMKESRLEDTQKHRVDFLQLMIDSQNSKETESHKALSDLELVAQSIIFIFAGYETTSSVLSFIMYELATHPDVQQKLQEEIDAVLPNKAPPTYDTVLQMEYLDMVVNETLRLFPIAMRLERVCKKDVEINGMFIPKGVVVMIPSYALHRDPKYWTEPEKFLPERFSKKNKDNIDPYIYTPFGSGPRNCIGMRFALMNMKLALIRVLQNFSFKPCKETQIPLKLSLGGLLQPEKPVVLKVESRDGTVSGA
Protocol: CYP3A4(MDZ) MBI test is a test of investigating mechanism based inhibition (MBI) potential on CYP3A4 inhibition of a compound. CYP3A4 inhibition is evaluated using 1-hydroxylation reaction of midazolam (MDZ) by pooled human liver microsomes as a marker reaction.
The reaction conditions were as follows: substrate, 10 μmol/L MDZ; pre-reaction time, 0 or 30 minutes; substrate reaction time, 2 minutes; reaction temperature, 37° C.; protein content of pooled human liver microsomes, 0.5 mg/mL at pre-reaction time, […] (at 10-fold dilution) at reaction time; concentrations of the compound of the present invention, 1, 5, 10, 20 μmol/L (4 points).
Pooled human liver microsomes in a K-Pi buffer (pH 7.4) and a compound of the present invention solution as a pre-reaction solution were added to a 96-well plate at the composition of the pre-reaction. A part of pre-reaction solution was transferred to another 96-well plate, and diluted 10-fold by a substrate in a K-Pi buffer. NADPH as a co-factor was added to initiate the marker reaction (without preincubation). After a predetermined time of the marker reaction, methanol/acetonitrile=1/1 (v/v) solution was added in order to terminate the marker reaction. On the other hand, NADPH was also added to a remaining pre-reaction solution in order to initiate a pre-reaction (with preincubation). After a predetermined time of a pre-reaction, a part was transferred to another 96-well plate, and diluted 10-fold by a substrate in a K-Pi buffer in order to initiate the marker reaction. After a predetermined time of the marker reaction, methanol/acetonitrile=1/1 (v/v) solution is added in order to terminate the marker reaction. After centrifuged at 3000 rpm for 15 minutes, 1-hydroxymidazolam in the supernatant is quantified by LC/MS/MS.
The sample adding DMSO to a reaction system instead of compound of the present invention solution was adopted as a control (100%) because DMSO is used as a solvent to dissolve a compound of the present invention. Remaining activity (%) was calculated at each concentration of the compound of the present invention added as the solution, and IC50 value was calculated by reverse-presumption using a logistic model with a concentration and an inhibition rate. Shifted IC value was calculated as “IC value without preincubation (0 minutes)/IC value with preincubation (30 minutes)”. When a shifted IC value was 1.5 or more, this was defined as positive. When a shifted IC value was less than 1.1, this was defined as negative.

[3] = tested on: Abeta 1-37, Abeta 1-38, Abeta 1-40 and Abeta 1-42 in cerebrospinal fluid (CSF); assay: Pharmacology in the beagle dog, beta-amyloid profile in CSF (Test Example 18-1); assay type: in vivo
Protocol: (§1) Test compounds were tested to evaluate the effect on the beta-amyloid profile in cerebrospinal fluid (CSF) of dogs after a single dose, in combination with pharmacokinetic (PK) follow up and limited safety evaluation.
In the case of compounds shown below, two beagle dogs (1 male, 1 female) were dosed with vehicle (1 mL/kg of an aqueous solution of 20% cyclodextrin) and 4 beagle dogs (2 males and 2 females) were dosed with test compound at the doses indicated in the following Table in an aqueous 20% cyclodextrin solution with a concentration in mg/mL identical to the dose given in mg/kg) on an empty stomach.
(§2) CSF was taken in conscious animals directly from the lateral ventricle via a cannula which was screwed in the skull and covered with subcutaneous tissue and skin, before and at 4, 8, 25 and 49 hours after dosing. Eight hours after dosing the animals got access to their regular meal for 30 minutes. Blood was taken for PK follow up (0.5, 1, 2, 4, 8, 25 and 49 hours) and serum samples for biochemistry were taken before and at 8 and 25 h after dosing. The CSF samples were used for measurement of Abeta 1-37, Abeta 1-38, Abeta 1-40 and Abeta 1-42.

BACE1 [4] = molecular target: T1, BACE1; assay: BACE1 biochemical FRET based assay - Method 1 (Test Example 2-2); settings: 0.04 μg/mL BACE1, 450 minutes, Citrate buffer pH 5.0, read-out: BACE1 Biochemical FRET based assay - Method 1 PIC50 (converted)
Procedure, shortened: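 FRET cleavage of a 13-mer APP Swedish-mutant peptide (Mca/Dnp, 20 μm) by BACE1 at 0.04 μg/mL final, 450 min at room temperature in 33.3 mM citrate pH 5.0, 0.033% PEG, 3% DMSO. Fluorescence (ex 320/em 405 nm) taken as T450 minus Tx (0–120 min); % inhibition normalized to no-enzyme and enzyme controls, IC50 by non-linear regression.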

BACE2 [5] = molecular target: T2, BACE2; assay: BACE2 biochemical FRET based assay (Test Example 2-4); settings: recombinant BACE2 0.4 μg/mL, 10 μM substrate, 450 minutes, pH 5.0; read-out: BACE2 Biochemical FRET based assay pIC50 (converted)
Procedure, shortened: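 Recombinant BACE2 (0.4 μg/mL final) incubated 450 min at room temperature with 10 μM Swedish-mutant APP Mca/Dnp FRET substrate in 33.3 mM citrate pH 5.0, 0.033% PEG, 2% DMSO. Fluorescence (ex 320/em 405 nm) difference between T0 and T450; % inhibition versus no-enzyme and full-enzyme controls, IC50 by non-linear regression.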

[6] = tested on: Abeta 1-37, Abeta 1-38, Abeta 1-40 and Abeta 1-42 in cerebrospinal fluid (CSF); assay: Pharmacology in the beagle dog, beta-amyloid profile in CSF (Test Example 18-2); assay type: in vivo; settings: single dose 0.63 mg/kg
Protocol: as §1
For each of compound II-6 or II-10, four beagle dogs (2 males, 2 females) were dosed with vehicle (1 mL/kg of an aqueous solution of 20% cyclodextrin) and 12 beagle dogs (2 males and 2 females per dosage group) were dosed with test compounds as follows:
In the case of compounds II-2, II-3 and II-18, two beagle dogs (1 male, 1 female) were dosed with vehicle (1 mL/kg of an aqueous solution of 20% cyclodextrin) and 4 beagle dogs (2 males and 2 females) were dosed with test compound (II-2, II-3, or II-18) at the doses indicated in the following Table in an aqueous 20% cyclodextrin solution with a concentration in mg/mL identical to the dose given in mg/kg) on an empty stomach.
as §2

BACE1 [7] = molecular target: T1, BACE1; assay: BACE1 cellular αLisa assay in SKNBE2 cells, Abeta 1-42 (Test Example 2-3); assay type: cell-based; design: endogenous in cells; host or cells: SKNBE2 human neuroblastoma cells expressing hAPP695; settings: SKNBE2 cells expressing hAPP695, 18 hours incubation, read-out: Cellular αLisa assay in SKNBE2 cells Abeta 42 pIC50 (converted)
Procedure, shortened: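 SKNBE2 neuroblastoma cells expressing wild-type hAPP695 incubated with compound for 18 h. Secreted Abeta 1-42 quantified by sandwich αLisa (AbN/25 donor, cAb42/26 acceptor beads), read after 1 h (ex 650, em 615 nm). IC50 from non-linear regression of % inhibition normalised to low and high controls.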

[8] = single dose 5 mg/kg, relevant decrease = >20% decrease
[9] = single dose 10 mg/kg, relevant decrease = >20% decrease

T1 sequence (P56817 46-501): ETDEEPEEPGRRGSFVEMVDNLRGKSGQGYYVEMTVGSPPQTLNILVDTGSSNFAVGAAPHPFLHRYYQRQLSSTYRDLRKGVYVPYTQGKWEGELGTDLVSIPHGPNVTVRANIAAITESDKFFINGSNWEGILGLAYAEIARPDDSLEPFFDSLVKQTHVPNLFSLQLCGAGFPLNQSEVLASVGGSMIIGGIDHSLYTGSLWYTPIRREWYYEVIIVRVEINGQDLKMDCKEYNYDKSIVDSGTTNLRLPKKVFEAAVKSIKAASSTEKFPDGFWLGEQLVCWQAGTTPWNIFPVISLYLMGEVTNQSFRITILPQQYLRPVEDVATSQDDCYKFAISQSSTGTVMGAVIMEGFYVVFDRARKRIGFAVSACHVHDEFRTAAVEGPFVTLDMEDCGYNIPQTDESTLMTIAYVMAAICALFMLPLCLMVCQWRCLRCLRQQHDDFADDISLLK

Compound: CN1C(N)=N[C@](C)(c2cc(NC(=O)c3cc4c(cn3)OC(F)(F)CO4)ccc2F)CS1(=O)=O [Compound I-011]
- selectivity (BACE1 [1]): 15.9
- IC50 (BACE1 [1]): 1.2 nM
- IC50 (BACE2 [2]): 18.6 nM
- MBI MDZ (CYP3A4): Negative
- % Decrease in Abeta 1-42 at 8 h post dosing compared to own baseline ([3]; single dose 5 mg/kg): −54%
- % Decrease in Abeta 1-42 at 25 h post dosing compared to own baseline [3, 8]: −37%
- % Decrease in Abeta 1-42 at 8 h post dosing compared to own baseline ([3]; single dose 10 mg/kg): −74%
- % Decrease in Abeta 1-42 at 25 h post dosing compared to own baseline [3, 9]: −77%
- % Decrease in Abeta 1-42 at 49 h post dosing compared to own baseline ([3]; single dose 10 mg/kg, 49 h, relevant decrease = >20% decrease): −30%

Compound: CN1C(N)=N[C@](C)(c2cc(NC(=O)c3cc4c(cn3)OC(F)(F)O4)ccc2F)CS1(=O)=O [Compound I-012]
- selectivity (BACE1 [1]): 18.7
- IC50 (BACE1 [1]): 2.9 nM
- IC50 (BACE2 [2]): 53.7 nM
- MBI MDZ (CYP3A4): Negative

Compound: CC1(C)C(N)=N[C@](C)(c2cc(NC(=O)c3cc4c(cn3)OC(F)(F)CO4)ccc2F)CS1(=O)=O [Compound I-024]
- MBI MDZ (CYP3A4): Negative
- % Decrease in Abeta 1-42 at 8 h post dosing compared to own baseline ([3]; single dose 0.63 mg/kg): −40%
- % Decrease in Abeta 1-42 at 8 h post dosing compared to own baseline ([3]; single dose 2.5 mg/kg): −66%

Compound: [2H]C1([2H])Oc2cnc(C(=O)Nc3ccc(F)c([C@]4(C)CS(=O)(=O)C(C)(C)C(N)=N4)c3)cc2OC1([2H])[2H] [Compound I-026]
- MBI MDZ (CYP3A4): Negative

Compound: CC1(C)C(N)=N[C@](C)(c2cc(NC(=O)c3cc4c(cn3)OC(F)(F)O4)ccc2F)CS1(=O)=O [Compound I-027]
- MBI MDZ (CYP3A4): Negative

Compound: NC1=N[C@](CF)(c2cc(NC(=O)c3cc4c(cn3)OC(F)(F)CO4)ccc2F)[C@H]2COCC[C@H]2O1 [Compound I-035]
- selectivity (BACE1 [1]): 301
- IC50 (BACE1 [1]): 2.2 nM
- IC50 (BACE2 [2]): 661 nM
- MBI MDZ (CYP3A4): Negative
- % Decrease in Abeta 1-42 at 8 h post dosing compared to own baseline ([3]; single dose 2.5 mg/kg): −52%
- % Decrease in Abeta 1-42 at 8 h post dosing compared to own baseline ([3]; single dose 5 mg/kg): −63%
- % Decrease in Abeta 1-42 at 25 h post dosing compared to own baseline [3, 8]: −27%
- % Decrease in Abeta 1-42 at 8 h post dosing compared to own baseline ([3]; single dose 10 mg/kg): −82%
- % Decrease in Abeta 1-42 at 25 h post dosing compared to own baseline [3, 9]: −28%

Compound: NC1=N[C@](CF)(c2cc(NC(=O)c3cc4c(cn3)OC(F)(F)O4)ccc2F)[C@H]2COCC[C@H]2O1 [Compound I-036]
- selectivity (BACE1 [1]): 166
- IC50 (BACE1 [1]): 13.2 nM
- IC50 (BACE2 [2]): 2190 nM
- MBI MDZ (CYP3A4): Negative

Compound: NC1=N[C@](CF)(c2cc(NC(=O)c3cc4c(cn3)OC(F)(F)CO4)ccc2F)[C@H]2CCOC[C@H]2O1 [Compound I-046]
- selectivity (BACE1 [1]): 263
- IC50 (BACE1 [1]): 8.32 nM
- IC50 (BACE2 [2]): 2190 nM
- MBI MDZ (CYP3A4): Negative

Compound: C[C@H]1OC[C@H]2[C@@H]1OC(N)=N[C@]2(CF)c1cc(NC(=O)c2cc3c(cn2)OC(F)(F)CO3)ccc1F [Compound I-049]
- selectivity (BACE1 [1]): 136
- IC50 (BACE1 [1]): 3.6 nM
- IC50 (BACE2 [2]): 490 nM
- MBI MDZ (CYP3A4): Negative

Compound: CC1(S(C)(=O)=O)CCC(CF)(c2cc(NC(=O)c3cc4c(cn3)OC(F)(F)O4)cc(F)c2F)N=C1N (stereo not drawn) [II-18]
- IC50 (BACE1 [4]): 3.24 nM
- IC50 (BACE2 [5]): 240 nM
- % Decrease in Abeta 1-42 at 8 h post dosing compared to own baseline ([6]; 8 h): 53%
- % Decrease in Abeta 1-42 at 24 h^(a) or 25 h^(b) post dosing compared to own baseline ([6]; 24 h or 25 h): 27%
- melting point: 195 °C
- IC50 (BACE1 [7]): 4.47 nM

From patent US20210261561A1, “BICYCLIC HETEROCYCLE DERIVATIVES HAVING SELECTIVE BACE1 INHIBITORY ACTIVITY” (SHIONOGI & CO., LTD., priority 2018, published 2021)
